# Values of other authors in patent US20050228336A1, “Electrically assisted lidocaine and epinephrine delivery device having extended shelf-stability” (priority 2004, published 2005).
# Conditions: iontophoresis in vitro across human skin
row,Compound,Cumulative delivery compared with lidocaine
1,CCCNC(C)C(=O)Nc1ccccc1C (stereo not drawn) [prilocalne],slightly greater delivery
2,CCCN(CC)C(CC)C(=O)Nc1c(C)cccc1C (stereo not drawn) [etidocaine],slightly greater delivery
3,CCN(CC)CCOC(=O)c1ccc(N)cc1 [procaine],slightly greater delivery
